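Method: 48-hour compound exposure of cells in 96-well plates, five concentrations, linear interpolation of endpoints. GI50 marks 50% less growth.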 Calls of active or inactive are those of the source. Cut-off read from the data, not from the text of the source: active = GI50 up to about 1.1 µM and inactive = higher.
What was measured:
Experiment in all cases: NCI-60 cell line screen, 48 h
NCI-H226 = system: NCI-H226
BT-549 = system: BT-549
786-0 = system: 786-0
T47D = system: T47D
SK-MEL-5 = system: SK-MEL-5
MDA-N = system: MDA-N
PC-3 = system: PC-3
CCRF-CEM = system: CCRF-CEM
NCI-H460 = system: NCI-H460
SNB-19 = system: SNB-19
MDA-MB-231 = system: MDA-MB-231
HOP-62 = system: HOP-62
SK-MEL-28 = system: SK-MEL-28
DU-145 = system: DU-145
K562 = system: K562
OVCAR-5 = system: OVCAR-5
SF-268 = system: SF-268
UACC-257 = system: UACC-257
SR = system: SR
U-251 = system: U-251
HCT-15 = system: HCT-15
Malme-3M = system: Malme-3M
MDA-MB-435 = system: MDA-MB-435
HT-29 = system: HT-29
Hs-578T = system: Hs-578T
RPMI-8226 = system: RPMI-8226
HCT-116 = system: HCT-116
TK-10 = system: TK-10
NCI/ADR-RES = system: NCI/ADR-RES
IGROV-1 = system: IGROV-1
A498 = system: A498
NCI-H522 = system: NCI-H522
LOX IMVI = system: LOX IMVI
SF-295 = system: SF-295
HL-60 = system: HL-60
MCF7 = system: MCF7
SN12C = system: SN12C
HOP-92 = system: HOP-92
SF-539 = system: SF-539
ACHN = system: ACHN
KM12 = system: KM12
UO-31 = system: UO-31
M14 = system: M14
CAKI-1 = system: CAKI-1
SW-620 = system: SW-620
MOLT-4 = system: MOLT-4
OVCAR-8 = system: OVCAR-8
OVCAR-3 = system: OVCAR-3
NCI-H23 = system: NCI-H23
HCC 2998 = system: HCC 2998
A549 = system: A549
SK-MEL-2 = system: SK-MEL-2
UACC-62 = system: UACC-62
SK-OV-3 = system: SK-OV-3
EKVX = system: EKVX
SNB-75 = system: SNB-75
OVCAR-4 = system: OVCAR-4
COLO 205 = system: COLO 205

For `O=C1CC(C(O)CO)CC(=O)N1` (stereo not drawn), the GI50 (NCI-H226) was > 100 µM (inactive), the GI50 (BT-549) was > 100 µM (inactive) and the GI50 (786-0) was > 100 µM (inactive). The GI50 (T47D) was > 100 µM (inactive), the GI50 (SK-MEL-5) was > 100 µM (inactive) and the GI50 (MDA-N) was > 100 µM (inactive). The GI50 (PC-3) was > 100 µM (inactive), the GI50 (CCRF-CEM) was > 100 µM (inactive) and the GI50 (NCI-H460) was > 100 µM (inactive). For the same molecule, the GI50 (SNB-19) was > 100 µM (inactive), the GI50 (MDA-MB-231) was > 100 µM (inactive) and the GI50 (HOP-62) was > 100 µM (inactive). The GI50 (SK-MEL-28) was > 100 µM (inactive), the GI50 (DU-145) was > 100 µM (inactive) and the GI50 (K562) was > 100 µM (inactive). For the same molecule, the GI50 (OVCAR-5) was > 100 µM (inactive), the GI50 (SF-268) was > 100 µM (inactive) and the GI50 (UACC-257) was > 100 µM (inactive). The GI50 (SR) was > 100 µM (inactive), the GI50 (U-251) was > 100 µM (inactive) and the GI50 (HCT-15) was > 100 µM. For the same molecule, the GI50 (Malme-3M) was > 100 µM (inactive), the GI50 (MDA-MB-435) was > 100 µM (inactive) and the GI50 (HT-29) was > 100 µM (inactive). For the same molecule, the GI50 (Hs-578T) was > 100 µM (inactive), the GI50 (RPMI-8226) was > 100 µM (inactive) and the GI50 (HCT-116) was > 100 µM (inactive). The GI50 (TK-10) was > 100 µM (inactive), the GI50 (NCI/ADR-RES) was > 100 µM (inactive) and the GI50 (IGROV-1) was > 100 µM (inactive). The GI50 (A498) was > 100 µM (inactive), the GI50 (NCI-H522) was > 100 µM (inactive) and the GI50 (LOX IMVI) was > 100 µM (inactive). For the same molecule, the GI50 (SF-295) was > 100 µM (inactive), the GI50 (HL-60) was > 100 µM (inactive) and the GI50 (MCF7) was > 100 µM (inactive). For the same molecule, the GI50 (SN12C) was > 100 µM (inactive), the GI50 (HOP-92) was > 100 µM (inactive) and the GI50 (SF-539) was > 100 µM (inactive). The GI50 (ACHN) was > 100 µM (inactive), the GI50 (KM12) was > 100 µM (inactive) and the GI50 (UO-31) was > 100 µM (inactive). For the same molecule, the GI50 (M14) was > 100 µM (inactive), the GI50 (CAKI-1) was > 100 µM (inactive) and the GI50 (SW-620) was > 100 µM (inactive). For the same molecule, the GI50 (MOLT-4) was > 10 µM (inactive), the GI50 (OVCAR-8) was > 100 µM (inactive) and the GI50 (OVCAR-3) was > 100 µM (inactive). The GI50 (NCI-H23) was > 100 µM (inactive), the GI50 (HCC 2998) was > 100 µM (inactive) and the GI50 (A549) was > 100 µM (inactive).
With `Fc1ccc(Nc2nc(Cl)c3nc[nH]c3n2)cc1Cl` the GI50 (NCI-H226) was > 100 µM (inactive), the GI50 (BT-549) was > 100 µM (inactive) and the GI50 (786-0) was 86.9 µM (inactive). The GI50 (T47D) was 38.5 µM (inactive), the GI50 (SK-MEL-5) was > 100 µM (inactive) and the GI50 (MDA-N) was > 100 µM (inactive). For the same molecule, the GI50 (PC-3) was > 100 µM (inactive), the GI50 (CCRF-CEM) was > 100 µM (inactive) and the GI50 (NCI-H460) was 58.9 µM (inactive). The GI50 (SK-MEL-2) was > 100 µM (inactive), the GI50 (SNB-19) was > 100 µM (inactive) and the GI50 (MDA-MB-231) was > 100 µM (inactive). The GI50 (UACC-62) was > 100 µM (inactive), the GI50 (HOP-62) was 61.8 µM (inactive) and the GI50 (SK-MEL-28) was > 100 µM (inactive). For the same molecule, the GI50 (DU-145) was 87.3 µM (inactive), the GI50 (OVCAR-5) was > 100 µM (inactive) and the GI50 (SF-268) was 35.6 µM (inactive). For the same molecule, the GI50 (UACC-257) was > 100 µM (inactive), the GI50 (SR) was 86.1 µM (inactive) and the GI50 (U-251) was 74.6 µM (inactive). The GI50 (SK-OV-3) was 87.1 µM (inactive), the GI50 (HCT-15) was > 100 µM and the GI50 (Malme-3M) was > 100 µM (inactive). For the same molecule, the GI50 (MDA-MB-435) was > 100 µM (inactive), the GI50 (HT-29) was > 100 µM (inactive) and the GI50 (Hs-578T) was 39.9 µM (inactive). The GI50 (RPMI-8226) was > 100 µM (inactive), the GI50 (HCT-116) was > 100 µM (inactive) and the GI50 (TK-10) was > 100 µM (inactive). The GI50 (NCI/ADR-RES) was 37.8 µM (inactive), the GI50 (IGROV-1) was 84.9 µM (inactive) and the GI50 (A498) was > 100 µM (inactive). For the same molecule, the GI50 (EKVX) was 67.8 µM (inactive), the GI50 (NCI-H522) was 43.5 µM (inactive) and the GI50 (LOX IMVI) was 75.3 µM (inactive). The GI50 (SF-295) was > 100 µM (inactive), the GI50 (HL-60) was > 100 µM (inactive) and the GI50 (MCF7) was 98.9 µM (inactive). The GI50 (SN12C) was > 100 µM (inactive), the GI50 (HOP-92) was > 100 µM (inactive) and the GI50 (SNB-75) was 41.4 µM (inactive). The GI50 (SF-539) was 45.5 µM (inactive), the GI50 (ACHN) was 34.9 µM (inactive) and the GI50 (KM12) was > 100 µM (inactive). The GI50 (UO-31) was 4.74 µM (inactive), the GI50 (OVCAR-4) was > 100 µM (inactive) and the GI50 (M14) was > 100 µM (inactive). For the same molecule, the GI50 (CAKI-1) was 6.97 µM (inactive), the GI50 (COLO 205) was > 100 µM (inactive) and the GI50 (SW-620) was > 100 µM (inactive). The GI50 (MOLT-4) was > 100 µM (inactive), the GI50 (OVCAR-8) was 24.9 µM (inactive) and the GI50 (OVCAR-3) was > 100 µM (inactive). For the same molecule, the GI50 (NCI-H23) was 79.6 µM (inactive), the GI50 (HCC 2998) was 32.9 µM (inactive) and the GI50 (A549) was > 100 µM (inactive).
